Patent EP4596574A1, “GLP-1/GCG/GIP TRIPLE-RECEPTOR AGONIST AND USE THEREOF” (Sunshine Lake Pharma Co., Ltd., priority 2022, dated 2024)
Marks after values point to notes of the source that are not given here.

How the values were obtained:
[1] = Glucose tolerance assessment in normal C57BL/6 mice (Example 5); assay type: in vivo; conditions: 3 nmol/kg s.c. single dose, 24 h after administration
Procedure, shortened: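 Normal C57BL/6 mice given a single dose, fasted 12 h starting 12 h post-dose, then challenged with 2 g/kg glucose i.p. Tail-vein glucose measured at baseline and 15, 30, 60, 90 min. AUC0~90min calculated from the glucose–time curve per dose group.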

[2] = Glucose tolerance assessment in normal C57BL/6 mice (Example 4); assay type: in vivo; conditions: 3 nmol/kg s.c. single dose, 24 h after administration
Procedure, shortened: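 Twelve hours after a single administration, mice were fasted 12 h and then given 2 g/kg glucose i.p. Tail-vein blood glucose was measured at baseline and at 15, 30, 60 and 90 min. AUC0–90min was calculated per dose group at 24 h post-dose.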

[3] = Pharmacokinetic study in rats, single subcutaneous injection; conditions: male, Sprague Dawley, in vivo, sc, rat, 50 nmol/kg single subcutaneous injection, plasma
Experimental: The pharmacokinetic study of each polypeptide compound prepared in Example 1 was conducted using male Sprague Dawley rats. There were 3 male rats in each group. […] The dose was 50 nmol/kg, and a single subcutaneous injection was given (see Table 3 for specific peptide compounds). After administration, plasma was collected on the specified days and time points, and the concentration of each peptide compound in the plasma was detected by LC-MS/MS method. The pharmacokinetic parameters were obtained based on the concentration data, which were used to describe the pharmacokinetic properties of the peptide in rats after subcutaneous injection. Table 3: Summary of pharmacokinetic parameters of some triple-target peptides in rats

[4] = 15 min after 2 g/kg glucose i.p.
[5] = 30 min after 2 g/kg glucose i.p.
[6] = 60 min after 2 g/kg glucose i.p.
[7] = 90 min after 2 g/kg glucose i.p.
[8] = basal before 2 g/kg glucose i.p.
[9] = blood glucose AUC, 2 g/kg glucose i.p.

Structure (SMILES): CC[C@H](C)[C@H](NC(=O)[C@H](Cc1ccccc1)NC(=O)[C@H](C)NC(=O)[C@H](CCCNC(=N)N)NC(=O)[C@H](CCC(N)=O)NC(=O)[C@H](CCCNC(=N)N)NC(=O)[C@H](CCCCNC(=O)COCCOCCNC(=O)CC[C@H](NC(=O)CCCCCCCCCCCCCCCCCCC(=O)O)C(=O)O)NC(=O)[C@H](CCC(=O)O)NC(=O)[C@H](CC(=O)O)NC(=O)[C@H](CC(C)C)NC(=O)[C@H](CC(C)C)NC(=O)[C@@H](NC(=O)[C@H](CO)NC(=O)[C@H](Cc1ccc(O)cc1)NC(=O)[C@H](CC(=O)O)NC(=O)[C@H](CO)NC(=O)[C@@H](NC(=O)[C@](C)(Cc1ccccc1F)NC(=O)[C@@H](NC(=O)CNC(=O)[C@H](CCC(N)=O)NC(=O)C(C)(C)NC(=O)[C@@H](N)Cc1ccc(O)cc1)[C@@H](C)O)[C@@H](C)O)[C@@H](C)CC)C(=O)N[C@@H](CCC(=O)O)C(=O)N[C@@H](Cc1ccc(O)cc1)C(=O)N[C@@H](CC(C)C)C(=O)N[C@@H](CC(C)C)C(=O)N[C@@H](C)C(=O)NCC(=O)NCC(=O)N1CCC[C@H]1C(=O)N[C@@H](CO)C(=O)N[C@@H](CO)C(=O)NCC(=O)N[C@@H](C)C(=O)N1CCC[C@H]1C(=O)N1CCC[C@H]1C(=O)N1CCC[C@H]1C(=O)N[C@@H](CO)C(=O)O [HEC-PT86]
- Blood glucose level (mM) 15 min [1, 4]: 13.2 ± 1.4 mM
- Blood glucose level (mM) 30 min [1, 5]: 10.3 ± 1.9 mM
- Blood glucose level (mM) 60 min [1, 6]: 8.8 ± 1.0 mM
- Blood glucose level (mM) 90 min [1, 7]: 7.0 ± 0.8 mM
- Blood glucose level (mM) 0 min [1, 8]: 3.9 ± 0.2 mM
- AUC0-90 min [1, 9]: 827.3±70.3^a

Structure (SMILES): CC[C@H](C)[C@H](NC(=O)[C@H](Cc1ccccc1)NC(=O)[C@H](CCC(=O)O)NC(=O)[C@H](CCCNC(=N)N)NC(=O)[C@H](CCC(N)=O)NC(=O)[C@H](CCCNC(=N)N)NC(=O)[C@H](CCCCNC(=O)COCCOCCNC(=O)CC[C@H](NC(=O)CCCCCCCCCCCCCCCCC(=O)O)C(=O)O)NC(=O)[C@H](CCC(=O)O)NC(=O)[C@H](CC(=O)O)NC(=O)[C@H](CC(C)C)NC(=O)[C@H](CC(C)C)NC(=O)[C@@H](NC(=O)[C@H](CO)NC(=O)[C@H](Cc1ccc(O)cc1)NC(=O)[C@H](CC(=O)O)NC(=O)[C@H](CO)NC(=O)[C@@H](NC(=O)[C@](C)(Cc1ccccc1F)NC(=O)[C@@H](NC(=O)CNC(=O)[C@H](Cc1c[nH]cn1)NC(=O)C(C)(C)NC(=O)[C@@H](N)Cc1ccc(O)cc1)[C@@H](C)O)[C@@H](C)O)[C@@H](C)CC)C(=O)N[C@@H](CCC(=O)O)C(=O)N[C@@H](Cc1c[nH]c2ccccc12)C(=O)N[C@@H](CC(C)C)C(=O)N[C@@H](CC(C)C)C(=O)N[C@@H](C)C(=O)NCC(=O)NCC(=O)N1CCC[C@H]1C(=O)N[C@@H](CO)C(=O)N[C@@H](CO)C(=O)NCC(=O)N[C@@H](C)C(=O)N1CCC[C@H]1C(=O)N1CCC[C@H]1C(=O)N1CCC[C@H]1C(=O)N[C@@H](CO)C(=O)O [HEC-PT77]
- Blood glucose level (mM) 15 min [2, 4]: 12.6 ± 3.3 mM
- Blood glucose level (mM) 30 min [2, 5]: 9.6 ± 3.4 mM
- Blood glucose level (mM) 60 min [2, 6]: 8.5 ± 2.7 mM
- Blood glucose level (mM) 90 min [2, 7]: 6.9 ± 1.9 mM
- Blood glucose level (mM) 0 min [2, 8]: 4.0 ± 0.5 mM
- AUC0-90 min [2, 9]: 776.9±227.6^a
- AUC(0-inf) [3]: 22200 ± 3840 ng·h/mL
- AUC(0-t) [3]: 22000 ± 3870 ng·h/mL
- Cmax [3]: 596 ± 213 ng/mL
- half-life ([3]; read-out: T1/2 (converted)): 11 ± 1.6 h
- Tmax ([3]; read-out: Tmax): 15 ± 11 h
